Laboratory results reported in US20230151025A1, “SUBSTITUTED THIAZOLOPYRIDINES, SALTS THEREOF AND THEIR USE AS HERBICIDALLY ACTIVE SUBSTANCES” (Bayer Aktiengesellschaft, priority 2020, published 2023).

The molecules below were run on Setaria viridis (SETVI) (assay: Herbicidal post-emergence action (D), 320 g/ha). Settings: ca. 3 weeks.
Assay type: in vivo
Outline: (§1)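 Visual % herbicidal effect vs untreated controls (100% = dead, 0% = like control), rated ca. 3 weeks after post-emergence spray. Plants treated at single-leaf stage, 2 to 3 weeks after sowing in sandy loam; aqueous WP/EC spray, 0.5% additive, 600 l water/ha.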

Point of comparison: `CCc1cc2scnc2nc1-c1ccccc1` [Example I-051], “herbicidal effect SETVI” value 80%. Against it:
- Cc1cc2scnc2nc1-c1cccc(F)c1 [Example I-003, 5-(3-fluorophenyl)-6-methyl-thiazolo[4,5-b]pyridine] — the same, 80%
- CCc1cc2scnc2nc1-c1ccccc1F [Example I-023] — the same, 80%
- Cc1cc2scnc2nc1-c1ccccc1 [Example I-041] — higher, 90%
- Fc1ccccc1-c1nc2ncsc2cc1C1CC1 [Example I-102] — the same, 80%
- Cc1cc2scnc2nc1-c1sccc1C [Example I-143] — the same, 80%

The molecules below were run on Amaranthus retroflexus (AMARE) (assay: Herbicidal post-emergence action (D), 320 g/ha). Settings: ca. 3 weeks.
Assay type: in vivo
Outline: as §1

Point of comparison: `Cc1cc2scnc2nc1-c1sccc1C` [Example I-143], “herbicidal effect AMARE” value 80%. Against it:
- Cc1cc2scnc2nc1-c1cccc(F)c1 [Example I-003, 5-(3-fluorophenyl)-6-methyl-thiazolo[4,5-b]pyridine] — the same, 80%
- CCc1cc2scnc2nc1-c1ccccc1F [Example I-023] — higher, 100%
- Cc1cc2scnc2nc1-c1ccccc1 [Example I-041] — higher, 90%
- CCc1cc2scnc2nc1-c1ccccc1 [Example I-051] — higher, 90%
- Fc1ccccc1-c1nc2ncsc2cc1C1CC1 [Example I-102] — the same, 80%

The molecules below were run on Lolium rigidum (LOLRI) (assay: Herbicidal post-emergence action (D), 320 g/ha). Settings: ca. 3 weeks.
Assay type: in vivo
Outline: as §1

Point of comparison: `CCc1cc2scnc2nc1-c1ccccc1` [Example I-051], “herbicidal effect LOLRI” value 80%. Against it:
- Cc1cc2scnc2nc1-c1ccccc1 [Example I-041] — the same, 80%

Each molecule was assayed on Veronica persica (VERPE) (assay: Herbicidal post-emergence action (D), 320 g/ha). Settings: ca. 3 weeks.
Assay type: in vivo
Outline: as §1

Point of comparison: `Cc1cc2scnc2nc1-c1ccccc1` [Example I-041], “herbicidal effect VERPE” value 90%. Against it:
- Cc1cc2scnc2nc1-c1cccc(F)c1 [Example I-003, 5-(3-fluorophenyl)-6-methyl-thiazolo[4,5-b]pyridine] — the same, 90%
- CCc1cc2scnc2nc1-c1ccccc1F [Example I-023] — the same, 90%
- CCc1cc2scnc2nc1-c1ccccc1 [Example I-051] — the same, 90%
- Fc1ccccc1-c1nc2ncsc2cc1C1CC1 [Example I-102] — lower, 80%
- Cc1cc2scnc2nc1-c1sccc1C [Example I-143] — lower, 80%

The molecules below were run on Echinochloa crus-galli (ECHCG) (assay: Herbicidal post-emergence action (D), 320 g/ha). Settings: ca. 3 weeks.
Assay type: in vivo
Outline: as §1

Point of comparison: `Cc1cc2scnc2nc1-c1sccc1C` [Example I-143], “herbicidal effect ECHCG” value 80%. Against it:
- CCc1cc2scnc2nc1-c1ccccc1F [Example I-023] — higher, 90%
- Cc1cc2scnc2nc1-c1ccccc1 [Example I-041] — higher, 100%
- CCc1cc2scnc2nc1-c1ccccc1 [Example I-051] — higher, 90%

The molecules below were run on Polygonum convolvulus (POLCO) (assay: Herbicidal post-emergence action (D), 320 g/ha). Settings: ca. 3 weeks.
Assay type: in vivo
Outline: as §1

Point of comparison: `Cc1cc2scnc2nc1-c1ccccc1` [Example I-041], “herbicidal effect POLCO” value 90%. Against it:
- CCc1cc2scnc2nc1-c1ccccc1F [Example I-023] — the same, 90%
- CCc1cc2scnc2nc1-c1ccccc1 [Example I-051] — the same, 90%
- Fc1ccccc1-c1nc2ncsc2cc1C1CC1 [Example I-102] — lower, 80%

What follows are molecules tested on Alopecurus myosuroides (ALOMY) (assay: Herbicidal post-emergence action (D), 320 g/ha). Settings: ca. 3 weeks.
Assay type: in vivo
Outline: as §1

Point of comparison: `CCc1cc2scnc2nc1-c1ccccc1` [Example I-051], “herbicidal effect ALOMY” value 90%. Against it:
- Cc1cc2scnc2nc1-c1cccc(F)c1 [Example I-003, 5-(3-fluorophenyl)-6-methyl-thiazolo[4,5-b]pyridine] — the same, 90%
- CCc1cc2scnc2nc1-c1ccccc1F [Example I-023] — the same, 90%
- Cc1cc2scnc2nc1-c1ccccc1 [Example I-041] — the same, 90%
- Cc1cc2scnc2nc1-c1sccc1C [Example I-143] — the same, 90%

Each molecule was assayed on Abutilon theophrasti (ABUTH) (assay: Herbicidal post-emergence action (D), 320 g/ha). Settings: ca. 3 weeks.
Assay type: in vivo
Outline: as §1

Point of comparison: `CCc1cc2scnc2nc1-c1ccccc1F` [Example I-023], “herbicidal effect ABUTH” value 80%. Against it:
- Cc1cc2scnc2nc1-c1ccccc1 [Example I-041] — higher, 90%

The molecules below were run on Kochia scoparia (KCHSC; Bassia scoparia) (assay: Herbicidal post-emergence action (B), 1280 g/ha). Settings: not given.
Assay type: in vivo
Outline: (§2)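 Post-emergence spray, one-leaf stage; WP/EC formulation, aqueous, 0.5% additive, 600 L/ha water. Sandy loam, greenhouse, doubly sown pots. Visual % rating vs untreated control at ~3 weeks (100% = dead).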

Point of comparison: `Cc1cc2scnc2nc1-c1sccc1C` [Example I-143], “herbicidal effect KCHSC” value 100%. Against it:
- Cc1cc2scnc2nc1-c1cccc(F)c1 [Example I-003, 5-(3-fluorophenyl)-6-methyl-thiazolo[4,5-b]pyridine] — lower, 90%
- CCc1cc2scnc2nc1-c1ccccc1F [Example I-023] — lower, 90%
- Cc1cc2scnc2nc1-c1ccccc1 [Example I-041] — the same, 100%
- CCc1cc2scnc2nc1-c1ccccc1 [Example I-051] — lower, 90%
- Fc1ccccc1-c1nc2ncsc2cc1C1CC1 [Example I-102] — the same, 100%

What follows are molecules tested on Setaria viridis (SETVI) (assay: Herbicidal post-emergence action (B), 1280 g/ha). Settings: rated visually after about 3 weeks vs untreated controls.
Assay type: in vivo
Outline: as §2

Point of comparison: `Cc1cc2scnc2nc1-c1cccc(F)c1` [Example I-003, 5-(3-fluorophenyl)-6-methyl-thiazolo[4,5-b]pyridine], “herbicidal activity SETVI” value 90%. Against it:
- CCc1cc2scnc2nc1-c1ccccc1F [Example I-023] — higher, 100%
- Cc1cc2scnc2nc1-c1ccccc1 [Example I-041] — higher, 100%
- CCc1cc2scnc2nc1-c1ccccc1 [Example I-051] — higher, 100%
- Fc1ccccc1-c1nc2ncsc2cc1C1CC1 [Example I-102] — higher, 100%
- Cc1cc2scnc2nc1-c1sccc1C [Example I-143] — the same, 90%

These molecules were tested on Poa annua (POAAN) (assay: Herbicidal post-emergence action (B), 1280 g/ha). Settings: rated visually after about 3 weeks vs untreated controls.
Assay type: in vivo
Outline: as §2

Point of comparison: `Cc1cc2scnc2nc1-c1ccccc1` [Example I-041], “herbicidal activity POAAN” value 100%. Against it:
- Cc1cc2scnc2nc1-c1cccc(F)c1 [Example I-003, 5-(3-fluorophenyl)-6-methyl-thiazolo[4,5-b]pyridine] — the same, 100%
- CCc1cc2scnc2nc1-c1ccccc1F [Example I-023] — the same, 100%
- CCc1cc2scnc2nc1-c1ccccc1 [Example I-051] — the same, 100%
- Fc1ccccc1-c1nc2ncsc2cc1C1CC1 [Example I-102] — lower, 90%
- Cc1cc2scnc2nc1-c1sccc1C [Example I-143] — the same, 100%

Each molecule was assayed on Matricaria inodora (MATIN) (assay: Herbicidal post-emergence action (B), 1280 g/ha). Settings: rated visually after about 3 weeks vs untreated controls.
Assay type: in vivo
Outline: as §2

Point of comparison: `Cc1cc2scnc2nc1-c1sccc1C` [Example I-143], “herbicidal activity MATIN” value 100%. Against it:
- Cc1cc2scnc2nc1-c1ccccc1 [Example I-041] — the same, 100%
- CCc1cc2scnc2nc1-c1ccccc1 [Example I-051] — the same, 100%
- Fc1ccccc1-c1nc2ncsc2cc1C1CC1 [Example I-102] — lower, 90%

These molecules were tested on Alopecurus myosuroides (ALOMY) (assay: Herbicidal post-emergence action (B), 1280 g/ha). Settings: rated visually after about 3 weeks vs untreated controls.
Assay type: in vivo
Outline: as §2

Point of comparison: `Fc1ccccc1-c1nc2ncsc2cc1C1CC1` [Example I-102], “herbicidal activity ALOMY” value 100%. Against it:
- Cc1cc2scnc2nc1-c1cccc(F)c1 [Example I-003, 5-(3-fluorophenyl)-6-methyl-thiazolo[4,5-b]pyridine] — the same, 100%
- CCc1cc2scnc2nc1-c1ccccc1F [Example I-023] — the same, 100%
- Cc1cc2scnc2nc1-c1ccccc1 [Example I-041] — the same, 100%
- CCc1cc2scnc2nc1-c1ccccc1 [Example I-051] — the same, 100%
- Cc1cc2scnc2nc1-c1sccc1C [Example I-143] — the same, 100%

Each molecule was assayed on Abutilon theophrasti (ABUTH) (assay: Herbicidal post-emergence action (B), 1280 g/ha). Settings: rated visually after about 3 weeks vs untreated controls.
Assay type: in vivo
Outline: as §2

Point of comparison: `CCc1cc2scnc2nc1-c1ccccc1F` [Example I-023], “herbicidal activity ABUTH” value 100%. Against it:
- Cc1cc2scnc2nc1-c1ccccc1 [Example I-041] — the same, 100%
- CCc1cc2scnc2nc1-c1ccccc1 [Example I-051] — lower, 90%
- Cc1cc2scnc2nc1-c1sccc1C [Example I-143] — the same, 100%

These molecules were tested on Digitaria sanguinalis (DIGSA) (assay: Herbicidal post-emergence action (D), 320 g/ha). Settings: ca. 3 weeks.
Assay type: in vivo
Excerpt: Seeds of mono- and dicotyledonous weed plants and crop plants were sown, in plastic or organic planting pots, in sandy loam, covered with soil and grown in a greenhouse under controlled growth conditions. 2 to 3 weeks after sowing, the test plants were sprayed in the single-leaf stage. The compounds according to the invention, formulated in form of wettable powders (WP) or as emulsifiable concentrates (EC), were sprayed onto the green plant parts as aqueous suspension or emulsion, with the addition of 0.5% of an additive, at an application rate of 600 l of water/ha (converted). The test plants were placed in the greenhouse for ca. 3 weeks under optimum growth conditions, and then the effect of the preparations was assessed visually in comparison with untreated controls (herbicidal effect in percent (%): 100% effect=plants have died off, 0% effect=as control plants).
Tables D1 to D13 below show the effects of selected compounds of the general formula (I) according to table 1 on various harmful plants and an application rate corresponding to 320 g/ha obtained by the experimental procedure mentioned above.

Point of comparison: `CCc1cc2scnc2nc1-c1ccccc1` [Example I-051], “herbicidal effect DIGSA” value 80%. Against it:
- CCc1cc2scnc2nc1-c1ccccc1F [Example I-023] — the same, 80%
- Cc1cc2scnc2nc1-c1ccccc1 [Example I-041] — higher, 90%

The molecules below were run on Avena fatua (assay: Herbicidal pre-emergence action (C), 320 g/ha). Settings: ca. 3 weeks.
Assay type: in vivo
Outline: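 Weed and crop seeds sown in sandy loam; WP or EC formulations applied pre-emergence to the soil surface as aqueous suspension/emulsion with 0.5% additive at 600 l water/ha. Greenhouse-grown under optimum conditions; damage visually scored after ca. 3 weeks versus untreated controls (0% = as control, 100% = plants dead).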

Point of comparison: `Cc1cc2scnc2nc1-c1ccccc1` [Example I-041], “herbicidal effect AVEFA” value 90%. Against it:
- CCc1cc2scnc2nc1-c1ccccc1 [Example I-051] — the same, 90%
- Cc1cc2scnc2nc1-c1sccc1C [Example I-143] — the same, 90%

What follows are molecules tested on Viola tricolor (VIOTR) (assay: Herbicidal pre-emergence action (C), 320 g/ha). Settings: ca. 3 weeks.
Assay type: in vivo
Outline: (§3)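 Visual percent damage relative to untreated controls was scored about 3 weeks after treatment, where 100% means plants died off and 0% means like controls. Compounds, as WP or EC with 0.5% additive, were applied in 600 l water/ha to the soil covering sown seeds.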

Point of comparison: `Cc1cc2scnc2nc1-c1cccc(F)c1` [Example I-003, 5-(3-fluorophenyl)-6-methyl-thiazolo[4,5-b]pyridine], “herbicidal effect VIOTR” value 80%. Against it:
- CCc1cc2scnc2nc1-c1ccccc1F [Example I-023] — the same, 80%
- CCc1cc2scnc2nc1-c1ccccc1 [Example I-051] — higher, 100%
- Fc1ccccc1-c1nc2ncsc2cc1C1CC1 [Example I-102] — the same, 80%

The molecules below were run on Matricaria inodora (MATIN) (assay: Herbicidal pre-emergence action (C), 320 g/ha). Settings: ca. 3 weeks.
Assay type: in vivo
Outline: as §3

Point of comparison: `CCc1cc2scnc2nc1-c1ccccc1` [Example I-051], “herbicidal effect MATIN” value 90%. Against it:
- CCc1cc2scnc2nc1-c1ccccc1F [Example I-023] — the same, 90%
- Cc1cc2scnc2nc1-c1ccccc1 [Example I-041] — the same, 90%
- Cc1cc2scnc2nc1-c1sccc1C [Example I-143] — the same, 90%

The molecules below were run on Polygonum convolvulus (POLCO) (assay: Herbicidal pre-emergence action (C), 320 g/ha). Settings: ca. 3 weeks.
Assay type: in vivo
Outline: as §3

Point of comparison: `Cc1cc2scnc2nc1-c1ccccc1` [Example I-041], “herbicidal effect POLCO” value 90%. Against it:
- Cc1cc2scnc2nc1-c1cccc(F)c1 [Example I-003, 5-(3-fluorophenyl)-6-methyl-thiazolo[4,5-b]pyridine] — lower, 80%
- CCc1cc2scnc2nc1-c1ccccc1F [Example I-023] — lower, 80%
- CCc1cc2scnc2nc1-c1ccccc1 [Example I-051] — lower, 80%

What follows are molecules tested on Abutilon theophrasti (ABUTH) (assay: Herbicidal pre-emergence action (C), 320 g/ha). Settings: ca. 3 weeks.
Assay type: in vivo
Outline: as §3

Point of comparison: `CCc1cc2scnc2nc1-c1ccccc1` [Example I-051], “herbicidal effect ABUTH” value 90%. Against it:
- CCc1cc2scnc2nc1-c1ccccc1F [Example I-023] — lower, 80%
- Cc1cc2scnc2nc1-c1sccc1C [Example I-143] — lower, 80%
